Activity calls are given as the source filed them. No cut-off for these calls is given here.
What was measured:
[1] = Acute toxicity in Swiss albino mouse assessed as effect on behavioural change up to 2000 mg/kg, po administered for 14 days; format: organism-based; details: in vivo, 336 h, time 14 day
INS1 [2] = assay: Induction of apoptosis in rat INS1 cells assessed as necrotic cells at 1 uM incubated for 36 hrs by Annexin V-FITC/ propidium iodide staining based flow cytometry analysis (reference value: 1.15%); format: functional
Mus musculus [3] = assay: Antidiabetic activity against high fat diet-STZ-induced diabetic Swiss albino mouse model assessed as reduction in blood glucose level at 0.2 mmol/Kg/day, po administered for 14 days relative to control; format: functional; set-up: scale not given: the % may be the effect or the level left; details: time 14 day
[4] = Acute toxicity in Swiss albino mouse assessed as effect on mortality up to 2000 mg/kg, po administered for 14 days; format: organism-based; details: in vivo, 336 h, time 14 day
INS1 [5] = assay: Induction of rat INS1 cells regeneration incubated for 24 hrs by CCK8 assay; format: functional, cell-based
Mus musculus [6] = assay: Antidiabetic activity against high fat diet-STZ-induced diabetic Swiss albino mouse model assessed as increase in appearance of insulin immunopositive areas in pancreatic sections at 0.2 mmol/kg/day, po administered for 14 days by […] based analysis; format: functional, organism-based; details: time 14.0 day
[7] = Cytotoxicity against human HCN-1A cells assessed as cell growth inhibition at 10 uM relative to control; format: toxicity, cell-based; details: read-out: GI
INS1 [8] = assay: Induction of apoptosis in rat INS1 cells assessed as early apoptotic cells at 1 uM incubated for 36 hrs by Annexin V-FITC/ propidium iodide staining based flow cytometry analysis (reference value: 0.34%); format: functional
[9] = Tmax in Swiss albino mouse plasma at 0.2 mmol/Kg, po measured after 24 hrs by HPLC analysis; format: ADME, organism-based
[10] = target: voltage dependent L-type calcium channel (Rattus norvegicus, UniProt P22002+P27732+Q02485); assay: Inhibition of voltage dependent L-type calcium channel in rat A7R5 cells
Alpha amylase = target: T1, Alpha amylase (Homo sapiens, UniProt P0DUB6); assay: Inhibition of alpha amylase (unknown origin) measured after 20 to 25 mins
T1 sequence (P0DUB6 whole entry): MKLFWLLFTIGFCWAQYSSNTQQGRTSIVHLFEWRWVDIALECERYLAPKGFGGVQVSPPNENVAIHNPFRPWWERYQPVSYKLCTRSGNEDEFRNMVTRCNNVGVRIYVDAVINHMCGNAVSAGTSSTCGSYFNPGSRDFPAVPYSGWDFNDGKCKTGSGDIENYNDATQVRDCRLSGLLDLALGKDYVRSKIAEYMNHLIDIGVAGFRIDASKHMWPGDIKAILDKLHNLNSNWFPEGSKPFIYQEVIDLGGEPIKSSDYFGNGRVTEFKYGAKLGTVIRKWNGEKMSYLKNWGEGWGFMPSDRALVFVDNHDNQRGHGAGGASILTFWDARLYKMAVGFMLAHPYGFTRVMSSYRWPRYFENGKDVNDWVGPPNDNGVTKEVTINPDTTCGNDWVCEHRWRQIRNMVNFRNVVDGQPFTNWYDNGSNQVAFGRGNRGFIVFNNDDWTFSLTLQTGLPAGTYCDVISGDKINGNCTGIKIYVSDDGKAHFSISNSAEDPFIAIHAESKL

Alpha glucosidase = Alpha glucosidase (Homo sapiens, UniProt O43451+P10253+P14410+Q2M2H8); assay: Inhibition of alpha glucosidase (unknown origin) measured after 60 mins; format: protein assay
[11] = Cytotoxicity against human BJ cells assessed as cell growth inhibition at 10 uM relative to control; format: toxicity, cell-based; details: read-out: GI
[12] = target: T2, Sodium/glucose cotransporter 2 (Homo sapiens) (UniProt P31639); assay: Inhibition of human SGLT2 by liquid scintillation counter analysis relative to canagliflozin; details: concentration not given here
T2 sequence (whole entry): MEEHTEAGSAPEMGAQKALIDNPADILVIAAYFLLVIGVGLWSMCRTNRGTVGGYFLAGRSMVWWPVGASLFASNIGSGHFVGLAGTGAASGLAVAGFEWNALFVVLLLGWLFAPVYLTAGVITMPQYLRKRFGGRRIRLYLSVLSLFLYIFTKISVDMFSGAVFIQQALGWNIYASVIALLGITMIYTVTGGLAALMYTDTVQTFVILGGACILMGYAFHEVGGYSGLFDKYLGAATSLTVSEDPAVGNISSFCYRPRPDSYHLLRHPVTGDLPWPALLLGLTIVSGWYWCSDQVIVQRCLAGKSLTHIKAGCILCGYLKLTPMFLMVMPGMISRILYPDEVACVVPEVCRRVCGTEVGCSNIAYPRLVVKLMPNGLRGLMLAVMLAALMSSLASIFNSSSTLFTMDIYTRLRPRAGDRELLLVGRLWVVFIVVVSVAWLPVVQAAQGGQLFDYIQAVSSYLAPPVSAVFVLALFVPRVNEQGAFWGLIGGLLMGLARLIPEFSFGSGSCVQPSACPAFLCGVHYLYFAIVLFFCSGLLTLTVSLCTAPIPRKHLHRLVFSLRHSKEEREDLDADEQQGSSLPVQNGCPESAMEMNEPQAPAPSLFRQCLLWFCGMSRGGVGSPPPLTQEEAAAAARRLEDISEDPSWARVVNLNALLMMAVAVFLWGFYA

Mus musculus [13] = assay: Antidiabetic activity against high fat diet-STZ-induced diabetic Swiss albino mouse model assessed as insulin resistance by measuring serum TNFalpha level at 0.2 mmol/Kg/day, po administered for 14 days by ELISA method (reference value: 376.50+/-14.50 ng/ml); format: functional; details: time 14 day
Dipeptidyl peptidase 4 = Dipeptidyl peptidase 4 (Homo sapiens, UniProt P27487); assay: Inhibition of DPP-4 (unknown origin) incubated for 30 mins in presence of substrate by fluorescence based analysis relative to sitagliptin
Dipeptidyl peptidase 4, sequence (P27487 whole entry, looked up): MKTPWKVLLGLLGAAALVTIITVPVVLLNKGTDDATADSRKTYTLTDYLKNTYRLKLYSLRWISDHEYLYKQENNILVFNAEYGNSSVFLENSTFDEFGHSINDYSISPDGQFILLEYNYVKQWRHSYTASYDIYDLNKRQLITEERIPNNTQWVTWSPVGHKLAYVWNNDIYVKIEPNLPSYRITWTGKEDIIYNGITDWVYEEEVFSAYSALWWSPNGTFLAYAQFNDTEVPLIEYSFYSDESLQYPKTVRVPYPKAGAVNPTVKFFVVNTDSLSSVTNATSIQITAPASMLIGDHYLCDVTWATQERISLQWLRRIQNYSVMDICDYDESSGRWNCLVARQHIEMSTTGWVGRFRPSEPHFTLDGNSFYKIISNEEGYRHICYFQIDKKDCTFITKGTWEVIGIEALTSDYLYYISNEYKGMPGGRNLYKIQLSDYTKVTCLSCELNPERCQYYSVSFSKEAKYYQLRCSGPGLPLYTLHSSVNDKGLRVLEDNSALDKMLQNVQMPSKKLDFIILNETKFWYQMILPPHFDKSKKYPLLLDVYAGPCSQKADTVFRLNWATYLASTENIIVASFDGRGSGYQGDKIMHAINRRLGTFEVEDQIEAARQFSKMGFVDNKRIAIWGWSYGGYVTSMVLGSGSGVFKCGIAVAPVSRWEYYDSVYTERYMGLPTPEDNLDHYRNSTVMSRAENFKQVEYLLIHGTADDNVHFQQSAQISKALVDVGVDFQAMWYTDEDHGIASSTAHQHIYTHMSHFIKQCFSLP

Mus musculus [14] = assay: Antidiabetic activity against high fat diet-STZ-induced diabetic Swiss albino mouse model assessed as induction of beta cell regeneration in pancreas at 0.2 mmol/kg/day, po administered for 14 days by haematoxylin and eosin staining based analysis; format: functional, organism-based; details: Pancreatic beta cell, time 14.0 day
[15] = Cytotoxicity against human BJ cells assessed as cell growth inhibition; format: toxicity, cell-based
[16] = Acute toxicity in Swiss albino mouse assessed as toxic symptoms up to 2000 mg/kg, po administered for 14 days; format: organism-based; details: in vivo, 336 h, time 14 day
Mus musculus [17] = assay: Antioxidant activity against high fat diet-STZ-induced diabetic Swiss albino mouse model assessed as serum MDA level at 0.2 mmol/Kg/day, po administered for 14 days (reference value: 8.70+/- 0.09 nmol/ml); format: functional; details: time 14 day
[18] = Cytotoxicity against human MRC5 cells assessed as cell growth inhibition at 10 uM relative to control; format: toxicity, cell-based; details: read-out: GI

CCOC(=O)C1=C(C)NC(C)=C(C(=O)OCC)C1c1cccc2c1OCO2
Activity [1]: Non-Toxic
Activity (INS1 [2]): 1.46%
Activity (Mus musculus [3]): 72.97%
Activity [4]: Non-Toxic
Activity (INS1 [5]): Dose-Dependent Effect
Activity (Mus musculus [6]): Active
inhibition at 10 µM [7]: 33.1%
Activity (INS1 [8]): 0.27%
Tmax [9]: 48 min
IC50 [10]: 12.6 µM
IC50 (Alpha amylase): 17.32 µM
IC50 (Alpha glucosidase): 4.48 µM
inhibition at 10 µM [11]: 34.5%
inhibition [12]: < 1%
Activity (Mus musculus [13]): 415.5 ng/mL
inhibition (Dipeptidyl peptidase 4): < 1%
Activity (Mus musculus [14]): Active
GI50 [15]: 15.2 µM
Activity [16]: Non-Toxic
Activity (Mus musculus [17]): 8.61 nmol/mL
inhibition at 10 µM [18]: 18.6%

— ChEMBL document CHEMBL5316297, “Mechanistic Insight of Synthesized 1,4-Dihydropyridines as an Antidiabetic Sword against Reactive Oxygen Species” (J Med Chem, 2023)
